Assay type in all cases: functional
For one assay, the system named is Salmonella enteritidis. In words: Antibacterial activity against Salmonella enterica subsp. enterica serovar Enteritidis ATCC 1376 after overnight incubation by microdilution method. In general terms: In broth dilution the organism is exposed to a series of concentrations in liquid medium.
The next assay has as its system Bacillus subtilis. In words: Antibacterial activity against Bacillus subtilis ATCC 6633 after overnight incubation by microdilution method.
The test system of a further assay is Proteus vulgaris. In words: Antibacterial activity against Proteus vulgaris Kukem 1329 after overnight incubation by microdilution method.
Another assay deals with Klebsiella pneumoniae. Briefly: Antibacterial activity against Klebsiella pneumoniae A137 after overnight incubation by microdilution method.
In another assay the test system is Pseudomonas aeruginosa. Briefly: Antibacterial activity against Pseudomonas aeruginosa ATCC 9027 after overnight incubation by microdilution method.
For another assay, the system named is Escherichia coli. In words: Antibacterial activity against Escherichia coli B3704 after overnight incubation by microdilution method.
The next assay concerns Enterococcus faecalis. In words: Antibacterial activity against Enterococcus faecalis ATCC 29122 after overnight incubation by microdilution method.
The subject of another assay is Streptococcus pyogenes. In words: Antibacterial activity against Streptococcus pyogenes ATCC 176 after overnight incubation by microdilution method.
A further assay has as its system Staphylococcus aureus. In words: Antibacterial activity against Staphylococcus aureus ATCC 29213 after overnight incubation by microdilution method.
In another assay the test system is Xanthomonas campestris. Briefly: Antibacterial activity against Xanthomonas campestris A235 after overnight incubation by microdilution method.

Structures are written as SMILES. ≈ marks a conversion by molar mass, not a printed value. Calls of active or inactive are those of the source. No cut-off for these calls is given here.

On to `NS(=O)(=O)NC(=O)c1nn(-c2ccccc2)c(-c2ccccc2)c1C(=O)c1ccccc1`, for which the MIC with Salmonella enteritidis, against Proteus vulgaris, against Klebsiella pneumoniae, against Pseudomonas aeruginosa, against Escherichia coli and against Streptococcus pyogenes was 32 µg/mL (≈ 71.7 µM) in each case. In addition, the MIC in the assay on Staphylococcus aureus and in the assay with Xanthomonas campestris was 32 µg/mL (≈ 71.7 µM) in each case. Besides, the MIC result in the assay with Bacillus subtilis and with Enterococcus faecalis was “inactive” throughout.

As for `O=c1onc(-c2ccccc2)c2c(-c3ccccc3)n(-c3ccccc3)nc12`, the MIC result with Salmonella enteritidis, in the assay with Bacillus subtilis, in the assay with Klebsiella pneumoniae, in the assay with Pseudomonas aeruginosa, in the assay with Enterococcus faecalis and in the assay with Staphylococcus aureus was “inactive” throughout. Besides, the MIC (commonly the least concentration at which growth counts as inhibited) against Proteus vulgaris is 512 µg/mL (≈ 1400 µM); against Escherichia coli, 512 µg/mL (≈ 1400 µM); in the assay on Streptococcus pyogenes, 512 µg/mL (≈ 1400 µM); in the assay on Xanthomonas campestris it was 256 µg/mL (≈ 701 µM).

As for `Nc1nnc(-c2ccccc2)c2c(-c3ccccc3)n(-c3ccccc3)nc12`, the MIC result with Salmonella enteritidis, in the assay with Bacillus subtilis, in the assay on Klebsiella pneumoniae, in the assay on Enterococcus faecalis, with Streptococcus pyogenes and with Staphylococcus aureus was “inactive” in each case. The MIC against Proteus vulgaris was 512 µg/mL (≈ 1410 µM); in the assay on Pseudomonas aeruginosa, 32 µg/mL (≈ 88.1 µM); against Escherichia coli, 512 µg/mL (≈ 1410 µM); with Xanthomonas campestris, 512 µg/mL (≈ 1410 µM).

As for `O=C(N[C@H](CO)[C@H](O)c1ccc([N+](=O)[O-])cc1)C(Cl)Cl` [CHLORAMPHENICOL], the MIC came out at 24 µg/mL (≈ 74.3 µM) with Salmonella enteritidis; 24 µg/mL (≈ 74.3 µM) in the assay on Bacillus subtilis; 24 µg/mL (≈ 74.3 µM) in the assay with Proteus vulgaris; 12 µg/mL (≈ 37.1 µM) with Klebsiella pneumoniae; 24 µg/mL (≈ 74.3 µM) in the assay with Pseudomonas aeruginosa; 6 µg/mL (≈ 18.6 µM) with Escherichia coli. For the same compound, the MIC was determined as 12 µg/mL (≈ 37.1 µM) in the assay with Enterococcus faecalis, 12 µg/mL (≈ 37.1 µM) against Streptococcus pyogenes, 6 µg/mL (≈ 18.6 µM) with Staphylococcus aureus and 12 µg/mL (≈ 37.1 µM) against Xanthomonas campestris.

As for `N#Cc1nn(-c2ccccc2)c(-c2ccccc2)c1C(=O)c1ccccc1`, the MIC result in the assay with Salmonella enteritidis, in the assay on Bacillus subtilis, in the assay with Klebsiella pneumoniae, in the assay with Pseudomonas aeruginosa, in the assay with Enterococcus faecalis and in the assay on Streptococcus pyogenes was “inactive” in each case. Also, the MIC entry with Staphylococcus aureus was “inactive”. For the same compound, the MIC against Proteus vulgaris, in the assay on Escherichia coli and with Xanthomonas campestris was 512 µg/mL (≈ 1470 µM) in each case.

For `O=C(c1ccccc1)c1nn(-c2ccccc2)c(-c2ccccc2)c1C(=O)c1ccccc1`, the MIC entry in the assay on Salmonella enteritidis, in the assay on Bacillus subtilis, with Klebsiella pneumoniae, in the assay with Pseudomonas aeruginosa, with Escherichia coli and in the assay with Enterococcus faecalis was “inactive” in each case. The MIC result with Streptococcus pyogenes and with Staphylococcus aureus was “inactive” throughout. The MIC against Proteus vulgaris and in the assay with Xanthomonas campestris was 512 µg/mL (≈ 1190 µM) each time.

These data come from ChEMBL document CHEMBL3045044, “Further derivatives of 4-benzoyl-1,5-diphenyl-1H-pyrazole-3-carboxylic acid and their antibacterial activities” (2007).
